The record followed here is paper PMC6406179 (F1000Research, 2018).

Where no end group is shown, it is not given here.

In data set [1] the target is T1, Mannheimia haemolytica leukotoxin (Lkt) (Mannheimia haemolytica, UniProt P16535). As to the kind of experiment: cell-based.
Data set [2] addresses T1, Mannheimia haemolytica leukotoxin (Lkt).
The mark [3] stands for this setting: IC50, concentration of peptide needed to block 50% of Lkt-induced cytolysis of BL3 cells.

Take CPQLLLLA [(B) 5-12]: the IC50 in data set [1] (IC50 (μM)) worked out at 51.5 ± 5.7 µM.

Regarding CPQLLLL [(B) 5-11], inhibition in data set [1] (IC50 (μM)) was half-maximal at 56.2 ± 5 µM (IC50).

In data set [1] (IC50 (uM) aa 5-17), RPQLLLLAGLLSL [Water Buffalo R5S16] registered an IC50 of 13.9 ± 1 µM.

RPQLLFLSGLLAL [Sheep R5F10S12] yielded an IC50 in data set [1] (IC50 (uM) aa 5-17) of 16.1 ± 1 µM.

Turning to RPQLLLLAGLL [(A) 5-15], in data set [1] (IC50 (μM)), the IC50 was determined as 26.4 ± 1.7 µM.

For RCPQVLLLAGLLGL [Eland R4C5V8G16], the half-maximal inhibitory concentration (IC50) in data set [1] (IC50 (uM) aa 4-17) was 33.3 ± 1.3 µM.

In turn, RPQLLLLAG [(A) 5-13] displayed an IC50 in data set [1] (IC50 (μM)) of 75 ± 11.3 µM.

With RPQLLLLAGLLAL [R5], the IC50 worked out at 12.1 ± 0.6 µM in data set [1] (IC50 (uM) aa 5-17) and 13.7 ± 0.6 µM in data set [1] (IC50 (μM)).

In data set [1] (IC50 (uM) aa 5-17), CPQVLLLAGLLGL [Eland C5V8G16] came in with an IC50 of 0.5 ± 0.1 µM.

On to CPQLLLLAGLLAL [C5], for which the “fold better at blocking Lkt-induced cytotoxicity compared to the 13-mer R5 peptide” value in data set [2] is recorded as 8 fold. The substance also yielded an IC50 in data set [1] (IC50 (μM)) of 1.5 ± 0.1 µM.

Turning to CPQLLLLAG [(B) 5-13], the IC50 in data set [1] (IC50 (μM)) is 27.8 ± 2 µM.

Turning to CPQLLLLAGLL [(B) 5-15], the IC50 in data set [1] (IC50 (μM)) stood at 2.8 ± 0.2 µM.

In data set [1] (IC50 (μM)), RPQLLLLAGL [(A) 5-14] gave an IC50 of 23.1 ± 1.3 µM.

The substance RCPQLLLLAGLLAL [Cattle R4C5] gave an IC50 in data set [1] (IC50 (uM) aa 4-17) of 14.5 ± 0.6 µM.

In data set [1] (IC50 (μM)), CPQLLLLAGLLA [(B) 5-16] yielded a half-maximal inhibitory concentration (IC50) of 0.6 ± 0.1 µM.

In data set [1] (setting [3]), MLHQRPQLLLLAGLLALQSVLS [H3R5] came in with an IC50 of 21.6 µM.

MLRQRPQLLLLAGLLALQSVLS [R3R5]: the figures for the IC50 in data set [1] (IC50 (μM)) and in data set [1] (setting [3]) were 12.7 ± 0.6 µM and 17.9 µM, respectively.

On to QCPQLLLLAGLLAL [Cattle Q4C5], for which 2.6 ± 0.1 µM corresponded to half-maximal inhibition in data set [1] (IC50 (uM) aa 4-17) (IC50).

Regarding RPQLLLLA [(A) 5-12], in data set [1] (IC50 (μM)), the IC50 came to 81.8 ± 13.6 µM.

For the substance CPQLLLLAGL [(B) 5-14], half-maximal inhibition in data set [1] (IC50 (μM)) (IC50) required 6.7 ± 0.5 µM.

In data set [1] (IC50 (μM)), RPQLLLLAGLLA [(A) 5-16] came in with an IC50 of 18 ± 0.8 µM. This IC50 is about 2.7-fold higher than that of the substance before.

In turn, RPQLLLL [(A) 5-11] displayed an IC50 in data set [1] (IC50 (μM)) of 64.8 ± 7.4 µM.

Substance QCPQVLLLAGLLGL [Eland Q4C5V8G16] came in with an IC50 in data set [1] (IC50 (uM) aa 4-17) of 1.6 ± 0.1 µM.

Turning to MLRQCPQLLLLAGLLALQSVLS [R3C5], the IC50 in data set [1] (IC50 (μM)) turned out to be 6.8 ± 0.5 µM; in data set [1] (setting [3]), 5.9 µM.

Broadly, the IC50 is the midpoint of a concentration-inhibition curve. Read a low IC50 as greater potency.
